Values of other authors, collected in patent US20120283175A1, “ANTIBACTERIAL COMPOSITIONS” (Achaogen, Inc., priority 2009, published 2012).

Test system: E. coli strain ATCC 25922
Settings: reported in US 2004-229955A1; cited from earlier work

## Cc1cccc(CNCC(=O)Nc2ccc(C#CC#Cc3ccc(C(=O)N[C@@H](CN)C(=O)NO)cc3)cc2)c1 [N-[(1S)-1-(aminomethyl)-2-(hydroxyamino)-2-oxoethyl]-4-(4-{4-[({[(3methylphenyl)methyl]amino}acetyl)amino]phenyl}buta-1,3-diynyl)benzamide]
  synergy with erythromycin: strong synergy
